Target: T1, Trx-6×His-BCL6 (human BCL6 BTB domain covering amino-acid sequence 5-129) (Homo sapiens, UniProt P41182)
T1 construct: made in house
Test: HTRF assay (BCL6 / BCOR peptide)
Assay type: binding
Conditions: 1 nM Trx-6×His-BCL6, 300 nM BCOR-AF633 peptide, 2 hours incubation at room temperature; read-out: HTRF avg pIC50 (converted)
Description: After 2 hours incubation at room temperature the plate was read on a Pherastar FSX (BMG Labtech) plate reader equipped with 337 nm laser excitation filter, a first emission filter at 620 nm and a second emission filter at 665 nm. The % inhibition at each concentration was calculated by normalising FRET ratio to the appropriate high (DMSO with all reagents) and low (DMSO without BCL6) controls.

**Q.** With `Cn1c(=O)c2c(c3cc(Nc4nc(N5CC[C@@H](F)[C@@H](F)C5)ncc4Cl)ccc31)N[C@@H](C1CC1)C(F)(F)CO2` (racemic) [Example 10a, (S)-10-((5-chloro-2-((3S,4R)-3,4-difluoropiperidin-1-yl)pyrimidin-4-yl)amino)-2-cyclopropyl-3,3-difluoro-7-methyl-1,2,3,4-tetrahydro-[1,4]oxazepino[2,3-c]quinolin-6(7H)-one; (S)-10-((5-chloro-2-((3R,4S)-3,4-difluoropiperidin-1-yl)pyrimidin-4-yl)amino)-2-cyclopropyl-3,3-difluoro-7-methyl-1,2,3,4-tetrahydro-[1,4]oxazepino[2,3-c]quinolin-6(7H)-one] as the compound, how does the IC50 read?
**A.** The IC50 was 12.3 nM.

**Q.** With `Cn1c(=O)c2c(c3cc(Nc4nc(N5CC[C@@H](F)[C@H](F)C5)ncc4Cl)ccc31)N[C@@H](C1CC1)C(F)(F)CO2` (racemic) [Example 10b, (S)-10-((5-chloro-2-((3S,4S)-3,4-difluoropiperidin-1-yl)pyrimidin-4-yl)amino)-2-cyclopropyl-3,3-difluoro-7-methyl-1,2,3,4-tetrahydro-[1,4]oxazepino[2,3-c]quinolin-6(7H)-one; (S)-10-((5-chloro-2-((3R,4R)-3,4-difluoropiperidin-1-yl)pyrimidin-4-yl)amino)-2-cyclopropyl-3,3-difluoro-7-methyl-1,2,3,4-tetrahydro-[1,4]oxazepino[2,3-c]quinolin-6(7H)-one] as the compound, how does the IC50 read?
**A.** The IC50 was 15.8 nM.

**Q.** With `COC1CCCN(c2ncc(Cl)c(Nc3ccc4c(c3)c3c(c(=O)n4C)OCC(F)(F)[C@H](C4CC4)N3)n2)C1` (mixture of isomers) [Example 10c, (S)-10-((5-chloro-2-((R)-3-methoxypiperidin-1-yl)pyrimidin-4-yl)amino)-2-cyclopropyl-3,3-difluoro-7-methyl-1,2,3,4-tetrahydro-[1,4]oxazepino[2,3-c]quinolin-6(7H)-one; (S)-10-((5-chloro-2-((S)-3-methoxypiperidin-1-yl)pyrimidin-4-yl)amino)-2-cyclopropyl-3,3-difluoro-7-methyl-1,2,3,4-tetrahydro-[1,4]oxazepino[2,3-c]quinolin-6(7H)-one] as the compound, how does the IC50 read?
**A.** Its IC50 is 5.01 nM.

**Q.** `Cn1c(=O)c2c(c3cc(Nc4nc(N5CC[C@@H](F)[C@@H](F)C5)ncc4F)ccc31)N[C@@H](C1CC1)C(F)(F)CO2` (racemic) [Example 10d, (S)-10-((5-fluoro-2-((3S,4R)-3,4-difluoropiperidin-1-yl)pyrimidin-4-yl)amino)-2-cyclopropyl-3,3-difluoro-7-methyl-1,2,3,4-tetrahydro-[1,4]oxazepino[2,3-c]quinolin-6(7H)-one; (S)-10-((5-fluoro-2-((3R,4S)-3,4-difluoropiperidin-1-yl)pyrimidin-4-yl)amino)-2-cyclopropyl-3,3-difluoro-7-methyl-1,2,3,4-tetrahydro-[1,4]oxazepino[2,3-c]quinolin-6(7H)-one] was tested. Which IC50 did it give?
**A.** Its IC50 is 20.9 nM.

**Q.** For `CCC1CCCN(c2ncc(Cl)c(Nc3ccc4c(c3)c3c(c(=O)n4C)OCC(F)(F)[C@H](C4CC4)N3)n2)C1` (mixture of isomers) [Example 11b, (S)-10-((5-chloro-2-((R)-3-ethylpiperidin-1-yl)pyrimidin-4-yl)amino)-2-cyclopropyl-3,3-difluoro-7-methyl-1,2,3,4-tetrahydro-[1,4]oxazepino[2,3-c]quinolin-6(7H)-one:(S)-10-((5-chloro-2-((S)-3-ethylpiperidin-1-yl)pyrimidin-4-yl)amino)-2-cyclopropyl-3,3-difluoro-7-methyl-1,2,3,4-tetrahydro-[1,4]oxazepino[2,3-c]quinolin-6(7H)-one (1:1)], which IC50 is on record?
**A.** The IC50 was 33.1 nM.

**Q.** How did the IC50 turn out when `CC1CCCCN(c2ncc(Cl)c(Nc3ccc4c(c3)c3c(c(=O)n4C)OCC(F)(F)[C@H](C4CC4)N3)n2)C1` (mixture of isomers) [Example 11c, (S)-10-((5-chloro-2-((R)-3-methylazepan-1-yl)pyrimidin-4-yl)amino)-2-cyclopropyl-3,3-difluoro-7-methyl-1,2,3,4-tetrahydro-[1,4]oxazepino[2,3-c]quinolin-6(7H)-one:(S)-10-((5-chloro-2-((S)-3-methylazepan-1-yl)pyrimidin-4-yl)amino)-2-cyclopropyl-3,3-difluoro-7-methyl-1,2,3,4-tetrahydro-[1,4]oxazepino[2,3-c]quinolin-6(7H)-one (1:1)] was run?
**A.** Its IC50 is 55 nM.

**Q.** Which IC50 does the source give for `CC1CCCN(c2ncc(Cl)c(Nc3ccc4c(c3)c3c(c(=O)n4C)OCC(F)(F)[C@H](C4CC4)N3)n2)CC1` (mixture of isomers) [Example 11d, (S)-10-((5-chloro-2-((R)-4-methylazepan-1-yl)pyrimidin-4-yl)amino)-2-cyclopropyl-3,3-difluoro-7-methyl-1,2,3,4-tetrahydro-[1,4]oxazepino[2,3-c]quinolin-6(7H)-one:(S)-10-((5-chloro-2-((S)-4-methylazepan-1-yl)pyrimidin-4-yl)amino)-2-cyclopropyl-3,3-difluoro-7-methyl-1,2,3,4-tetrahydro-[1,4]oxazepino[2,3-c]quinolin-6(7H)-one (1:1)] here?
**A.** Its IC50 is 64.6 nM.

**Q.** With `Cn1c(=O)c2c(c3cc(Nc4nc(N5CC(O)CC6(CC6)C5)ncc4Cl)ccc31)N[C@@H](C1CC1)C(F)(F)CO2` (mixture of isomers) [Example 11h, (S)-10-((5-chloro-2-((R)-7-hydroxy-5-azaspiro[2.5]octan-5-yl)pyrimidin-4-yl)amino)-2-cyclopropyl-3,3-difluoro-7-methyl-1,2,3,4-tetrahydro-[1,4]oxazepino[2,3-c]quinolin-6(7H)-one:(S)-10-((5-chloro-2-((S)-7-hydroxy-5-azaspiro[2.5]octan-5-yl)pyrimidin-4-yl)amino)-2-cyclopropyl-3,3-difluoro-7-methyl-1,2,3,4-tetrahydro-[1,4]oxazepino[2,3-c]quinolin-6(7H)-one (1:1)] as the compound, how does the IC50 read?
**A.** The IC50 was 5.62 nM.

**Q.** `COCC(C)CNc1ncc(Cl)c(Nc2ccc3c(c2)c2c(c(=O)n3C)OCC(F)(F)[C@H](C3CC3)N2)n1` (mixture of isomers) [Example 11m, (S)-10-((5-chloro-2-(((R)-3-methoxy-2-methylpropyl)amino)pyrimidin-4-yl)amino)-2-cyclopropyl-3,3-difluoro-7-methyl-1,2,3,4-tetrahydro-[1,4]oxazepino[2,3-c]quinolin-6(7H)-one:(S)-10-((5-chloro-2-(((S)-3-methoxy-2-methylpropyl)amino)pyrimidin-4-yl)amino)-2-cyclopropyl-3,3-difluoro-7-methyl-1,2,3,4-tetrahydro-[1,4]oxazepino[2,3-c]quinolin-6(7H)-one (1:1)] was tested. Which IC50 did it give?
**A.** The IC50 was 3.89 nM.

**Q.** For `Cn1c(=O)c2c(c3cc(Nc4nc(N5CCCC(C(F)F)C5)ncc4Cl)ccc31)N[C@@H](C1CC1)C(F)(F)CO2` (mixture of isomers) [Example 11r, (S)-10-((5-chloro-2-((R)-3-(difluoromethyl)piperidin-1-yl)pyrimidin-4-yl)amino)-2-cyclopropyl-3,3-difluoro-7-methyl-1,2,3,4-tetrahydro-[1,4]oxazepino[2,3-c]quinolin-6(7H)-one:(S)-10-((5-chloro-2-((S)-3-(difluoromethyl)piperidin-1-yl)pyrimidin-4-yl)amino)-2-cyclopropyl-3,3-difluoro-7-methyl-1,2,3,4-tetrahydro-[1,4]oxazepino[2,3-c]quinolin-6(7H)-one (1:1)], which IC50 is on record?
**A.** The IC50 was 10 nM.

**Q.** How did the IC50 turn out when `CCC1CCN(c2ncc(Cl)c(Nc3ccc4c(c3)c3c(c(=O)n4C)OCC(F)(F)[C@H](C4CC4)N3)n2)C1` (mixture of isomers) [Example 11y, (S)-10-((5-chloro-2-((R)-3-ethylpyrrolidin-1-yl)pyrimidin-4-yl)amino)-2-cyclopropyl-3,3-difluoro-7-methyl-1,2,3,4-tetrahydro-[1,4]oxazepino[2,3-c]quinolin-6(7H)-one:(S)-10-((5-chloro-2-((S)-3-ethylpyrrolidin-1-yl)pyrimidin-4-yl)amino)-2-cyclopropyl-3,3-difluoro-7-methyl-1,2,3,4-tetrahydro-[1,4]oxazepino[2,3-c]quinolin-6(7H)-one (1:1)] was run?
**A.** The IC50 was 46.8 nM.

**Q.** `Cn1c(=O)c2c(c3cc(Nc4nc(N5CCCC(C)(F)C5)ncc4Cl)ccc31)N[C@@H](C1CC1)C(F)(F)CO2` (mixture of isomers) [Example 11z, (S)-10-((5-chloro-2-((R)-3-fluoro-3-methylpiperidin-1-yl)pyrimidin-4-yl)amino)-2-cyclopropyl-3,3-difluoro-7-methyl-1,2,3,4-tetrahydro-[1,4]oxazepino[2,3-c]quinolin-6(7H)-one:(S)-10-((5-chloro-2-((S)-3-fluoro-3-methylpiperidin-1-yl)pyrimidin-4-yl)amino)-2-cyclopropyl-3,3-difluoro-7-methyl-1,2,3,4-tetrahydro-[1,4]oxazepino[2,3-c]quinolin-6(7H)-one (1:1)] was tested. Which IC50 did it give?
**A.** The IC50 was 13.2 nM.

**Q.** For `Cn1c(=O)c2c(c3cc(Nc4nc(N5CCC(C)(O)C5)ncc4Cl)ccc31)N[C@@H](C1CC1)C(F)(F)CO2` (mixture of isomers) [Example 12a, (S)-10-((5-chloro-2-((R)-3-hydroxy-3-methylpyrrolidin-1-yl)pyrimidin-4-yl)amino)-2-cyclopropyl-3,3-difluoro-7-methyl-1,2,3,4-tetrahydro-[1,4]oxazepino[2,3-c]quinolin-6(7H)-one:(S)-10-((5-chloro-2-((S)-3-hydroxy-3-methylpyrrolidin-1-yl)pyrimidin-4-yl)amino)-2-cyclopropyl-3,3-difluoro-7-methyl-1,2,3,4-tetrahydro-[1,4]oxazepino[2,3-c]quinolin-6(7H)-one (1:1)], which IC50 is on record?
**A.** Its IC50 is 6.31 nM.

**Q.** With `CC1CN(c2ncc(Cl)c(Nc3ccc4c(c3)c3c(c(=O)n4C)OCC(F)(F)[C@H](C4CC4)N3)n2)CCS1` (mixture of isomers) [Example 12f, (S)-10-((5-chloro-2-((R)-2-methylthiomorpholino)pyrimidin-4-yl)amino)-2-cyclopropyl-3,3-difluoro-7-methyl-1,2,3,4-tetrahydro-[1,4]oxazepino[2,3-c]quinolin-6(7H)-one:(S)-10-((5-chloro-2-((S)-2-methylthiomorpholino)pyrimidin-4-yl)amino)-2-cyclopropyl-3,3-difluoro-7-methyl-1,2,3,4-tetrahydro-[1,4]oxazepino[2,3-c]quinolin-6(7H)-one (1:1)] as the compound, how does the IC50 read?
**A.** The IC50 was 9.55 nM.
